In patent publication US20130149399A1, “SKIN TEMPERATURE ELEVATING AGENT, AND COSMETIC COMPOSITION, FOOD AND SUNDRY ARTICLE CONTAINING THE SAME” (SHISEIDO COMPANY ,LTD., priority 2010, published 2013):

Test: Test method of measuring skin temperature when smelling the aroma of the test sample
Type: in vivo, human
Conditions: females in their 20's, aroma smelled from soaked cotton, chest skin temperature as reference, 25 °C, humidity 45%; for effect of the aroma on the skin temperature of the cheek (change level with aroma minus change level with no aroma): samples 0.05-0.1 mass % in triethyl citrate or ethanol, FIG. 1
Procedure: The present invention will be explained below in more detail with reference to examples. Test samples were prepared which were a dilution of an extract of Japanese peppermint by triethyl citrate to a concentration of 0.05 mass %, a dilution of an extract of juniper berry by triethyl citrate to a concentration of 0.1 mass %, a dilution of an extract of […] by triethyl citrate to a concentration of 0.05 mass %, a dilution of dihydro-β-ionol by ethanol to a concentration of 0.1 mass %, a dilution of geraniol by ethanol to a concentration of 0.1 mass %, and a dilution of 4-methoxystyrene by ethanol to a concentration of 0.5 mass %, and how the aromas of those test samples influenced a skin temperature was tested. In this example, test subjects were females in their 20's. Five test subjects for the extract of Japanese peppermint, seven test subjects for the extract of juniper berry, three test subjects for the extract of […] test subjects for dihydro-β-ionol, five test subjects for geraniol, and seven test subjects for 4-methoxystyrene participated in the tests. The test content was explained in advance to the test subjects, and the participation in the test was agreed in writing. The tests were carried out in a room at a constant temperature set to 25 ° C. and a constant humidity set to 45%. Skin temperature sensors were attached to a cheek of the test subject, a hand fingertip (middle finger), and a chest, and connected to a temperature monitor to successively measure the skin temperature. […] Skin temperature change levels of a cheek and those of a hand fingertip between when an aroma was smelled and when no aroma was smelled were compared with each other, and an effect of the aroma of the test sample to the skin temperature was evaluated. […] When this value is a positive one, it is determined that a skin temperature is raised and when this value is a negative one, it is determined that a skin temperature is lowered.

C=Cc1ccc(OC)cc1 [4-methoxystyrene]
effect of the aroma on the skin temperature of the hand fingertip (change level with aroma minus change level with no aroma) (middle finger, samples 0.05-0.5 mass % in triethyl citrate or ethanol, FIG. 2): effect of raising the skin temperature of the hand fingertip

CC1=C(CCC(C)O)C(C)(C)CCC1 (stereo not drawn) [dihydro-β-ionol, Dihydro-β-ionol]
effect of the aroma on the skin temperature of the cheek (change level with aroma minus change level with no aroma): effect of raising the skin temperature of the cheek

CC(C)=CCC/C(C)=C/CO [geraniol, Geraniol]
effect of the aroma on the skin temperature of the cheek (change level with aroma minus change level with no aroma): effect of raising the skin temperature of the cheek
